Source: US20140249105A1, “NOVEL CERAMIDE ANALOGUES, PROCESSES FOR PREPARING SAME AND USES THEREOF” (Diverchim, priority 2011, published 2014)

How the values were obtained:
[1] = system: B16 melanocytes; experiment: Viability of the cells, test of reduction of MTT; assay type: cell-based; conditions: 72 h
Description: (§1) Melanocytes were seeded on a 96-well plate and cultured for 24 h (37° C., 5% CO2, DMEM 1 g/L glucose without phenol red supplemented with glucose 3 g/L, L-glutamine 2 mM, penicillin 50 U/mL, streptomycin 50 μg/mL, fetal calf serum (FCS) 10%). […] Each experimental condition was carried out with n=3, apart from the controls carried out with n=6. The cells were then incubated for 72 h. Wells without cells received in parallel the same quantities of medium, supplemented or not with NDP-MSH and with or without the test compounds or the reference in order to quantify the background noise associated with the presence of the compounds.
At the end of the treatment, the cells were incubated in the presence of MTT (3-(4,5-dimethylthiazol-2-yl)-2,5-diphenyl tetrazolium bromide), the conversion of which to blue crystals of formazan is proportional to the activity of succinate dehydrogenase (mitochondrial enzyme). After disruption of the cells, the formazan was dissolved in DMSO medium and the optical density (OD), representative of the number of live cells and of their metabolic reactivity, was measured with a microplate reader at 540 nm (VERSAmax, Molecular Devices).

[2] = system: B16 melanocytes; experiment: Screening of anti-melanogenesis activity: melanin assay in B16 melanocytes stimulated with NDP-MSH; assay type: cell-based; conditions: 72 h
Description: This was carried out for compounds in solution in DMSO. The synthesis of melanin was measured in a model of B16 melanocytes stimulated with a stable derivative of α-MSH (natural hormone that stimulates melanogenesis: Melanocyte Stimulating Hormone): NDP-MSH ([Nle^4, DPhe7]-α-MSH).
as §1
At the end of 72 hours of incubation, the total melanin (intra- and extracellular) was quantified by measuring the absorbance of each sample at 405 nm (direct reading of the culture plates) against a standard range of melanin (melanin concentrations tested from 0.78 to 100 μg/mL). The background noise, measured in the wells without cells, was subtracted from the values measured so that only the effect connected with the production of melanin is taken into account, without including any interference connected with the presence of the compounds. The results were expressed in percentage of melanin relative to the control as well as in percentage inhibition.

| SMILES | Viability (MTT) % stimulated control ([1]; 30 μM) | Viability (MTT) % stimulated control ([1]; 100 μM) | Normalized data inhibition (%) ([2]; 30 μM) | Normalized data inhibition (%) ([2]; 100 μM) | other results |
| --- | --- | --- | --- | --- | --- |
| O=C(NC1CC1NC(=O)C(F)=CCCCCCCCCO)C(F)=CCCCCCCCCO (mixture of isomers) [c37] | 77 % stimulated control | 83 % stimulated control | 0% | 92% |  |
| O=C(NC1CCCC1NC(=O)C(F)=CCCCCCCCO)C(F)=CCCCCCCCO (mixture of isomers) [c46] | 77 % stimulated control | 68 % stimulated control | 0% | 75% |  |
| O=C(NC1CCCC1NC(=O)C(F)=CCCCCCCCOC1CCCCO1)C(F)=CCCCCCCCOC1CCCCO1 (mixture of isomers) [c66] | 96 % stimulated control | 93 % stimulated control | 119% | 118% |  |
| O=C(NC1CCC(NC(=O)C(F)=CCCCCCCCOC2CCCCO2)C1)C(F)=CCCCCCCCOC1CCCCO1 (mixture of isomers) [c69] | 87 % stimulated control | 78 % stimulated control | 116% | 112% |  |
| O=C(NC1CCCC1NC(=O)C(F)=CCCCCCCCCOC1CCCCO1)C(F)=CCCCCCCCCOC1CCCCO1 (mixture of isomers) [c71] | 116 % stimulated control | 104 % stimulated control | 93% | 109% |  |
| O=C(NC1CCC(NC(=O)C(F)=CCCCCCCCCOC2CCCCO2)C1)C(F)=CCCCCCCCCOC1CCCCO1 (mixture of isomers) [c74] | 78 % stimulated control | 81 % stimulated control | 110% | 111% |  |
| O=C(NC1CC1NC(=O)C(F)=CCCCCCOC1CCCCO1)C(F)=CCCCCCOC1CCCCO1 (mixture of isomers) [c108] | 75 % stimulated control | 80 % stimulated control | 73% | 105% |  |
| O=C(NC1CC1NC(=O)C(F)=CCCCCCOC1CCCCO1)C(F)=CCCCCCOC1CCCCO1 (racemic) [c110] | 83 % stimulated control | 0 % stimulated control | 104% | 120% |  |
| O=C(NC1CCC(NC(=O)C(F)=CCCCCCO)C1)C(F)=CCCCCCO (racemic) [c115] | 94 % stimulated control | 97 % stimulated control | 0% | 95% |  |
| O=c1cc(CO)occ1O [Kojic acid, reference compound] |  |  |  |  | Viability (MTT) % stimulated control ([1]; 25 μg/mL): 103 % stimulated control; Viability (MTT) % stimulated control ([1]; 100 μg/mL): 99 % stimulated control; Viability (MTT) % stimulated control ([1]; 400 μg/mL): 96 % stimulated control; inhibition at 25 µg/mL ([2]; Melanocyte, 25 μg/mL, read-out: Normalized data inhibition (%)): 59%; inhibition at 100 µg/mL ([2]; Melanocyte, 100 μg/mL, read-out: Normalized data inhibition (%)): 83%; inhibition at 400 µg/mL ([2]; Melanocyte, 400 μg/mL, read-out: Normalized data inhibition (%)): 93% |
| O=C(O)C(F)=CCCCCCCCCCCCCCCCO [Ref 2, 18-Hydroxy-octadec-2-en-2-fluoro-oic acid, reference compound] | 83 % stimulated control | 72 % stimulated control | 0% | 79% |  |
| O=C(NC1CCC(NC(=O)C(F)=CCCCCCOC2CCCCO2)C1)C(F)=CCCCCCOC1CCCCO1 (stereo not shown) [c8] | 86 % stimulated control | 77 % stimulated control | 86% | 115% |  |
| O=C(/C=C/CCCCCCCCO)N[C@H]1CCC[C@H]1NC(=O)/C=C/CCCCCCCCO [c15] | 76 % stimulated control | 74 % stimulated control | 2% | 73% |  |
| O=C(/C=C/CCCCCCCCCCCOC1CCCCO1)N[C@@H]1CC[C@H](NC(=O)/C=C/CCCCCCCCCCCOC2CCCCO2)C1 (stereo partly shown) [c30] | 76 % stimulated control |  |  |  | Viability (MTT) % stimulated control ([1]; 10 μM): 77 % stimulated control; inhibition at 10 µM ([2]; Melanocyte, 10 μM, read-out: Normalized data inhibition (%)): 42%; inhibition at 30 µM ([2]; Melanocyte, 30 μM, read-out: Normalized data inhibition (%)): 71% |
| O=C(N[C@H]1C[C@H]1NC(=O)C(F)=CCCCCCCCCCCCCCCCO)C(F)=CCCCCCCCCCCCCCCCO [c44] |  |  |  |  | Viability (MTT) % stimulated control ([1]; 1 μM): 87 % stimulated control; Viability (MTT) % stimulated control ([1]; 3 μM): 88 % stimulated control; Viability (MTT) % stimulated control ([1]; 10 μM): 91 % stimulated control; Normalized data inhibition (%) ([2]; 1 μM): −11%; Normalized data inhibition (%) ([2]; 3 μM): 36%; Normalized data inhibition (%) ([2]; 10 μM): 69% |
| O=C(N[C@H]1CCC[C@H]1NC(=O)/C(F)=C\CCCCCCCCO)/C(F)=C\CCCCCCCCO [c49] | 83 % stimulated control | 0 % stimulated control | 83% | 118% |  |
| O=C(N[C@@H]1CC[C@H](NC(=O)/C(F)=C/CCCCCCCCO)C1)/C(F)=C/CCCCCCCCO [c58] | 101 % stimulated control | 98 % stimulated control | 62% | 83% |  |
| O=C(NC1CCC(NC(=O)C(F)=CCCCCCCCCCCCO)C1)C(F)=CCCCCCCCCCCCO (stereo not shown) [c60] | 105 % stimulated control | 101 % stimulated control | 83% | 97% |  |
| O=C(N[C@H]1CCC[C@H]1NC(=O)/C(F)=C\CCCCCCCOC1CCCCO1)/C(F)=C\CCCCCCCOC1CCCCO1 (stereo partly shown) [c67] | 71 % stimulated control | 81 % stimulated control | 119% | 116% |  |
| O=C(N[C@@H]1CC[C@H](NC(=O)/C(F)=C/CCCCCCCOC2CCCCO2)C1)/C(F)=C/CCCCCCCOC1CCCCO1 (stereo partly shown) [c68] | 64 % stimulated control | 50 % stimulated control | 95% | 108% |  |
| O=C(N[C@@H]1CC[C@H](NC(=O)/C(F)=C\CCCCCCCOC2CCCCO2)C1)/C(F)=C\CCCCCCCOC1CCCCO1 (stereo partly shown) [c70] | 90 % stimulated control | 86 % stimulated control | 115% | 116% |  |
| O=C(N[C@H]1CCC[C@H]1NC(=O)/C(F)=C\CCCCCCCCOC1CCCCO1)/C(F)=C\CCCCCCCCOC1CCCCO1 (stereo partly shown) [c72] | 102 % stimulated control | 86 % stimulated control | 87% | 112% |  |
| O=C(N[C@@H]1CC[C@H](NC(=O)/C(F)=C\CCCCCOC2CCCCO2)C1)/C(F)=C\CCCCCOC1CCCCO1 (stereo partly shown) [c106] | 73 % stimulated control | 36 % stimulated control | 114% | 119% |  |
| O=C(NC1CCCC1NC(=O)C(F)=CCCCCCOC1CCCCO1)C(F)=CCCCCCOC1CCCCO1 (stereo not shown) [c107] | 95 % stimulated control | 26 % stimulated control | 66% | 120% |  |
| O=C(NC1CC1NC(=O)C(F)=CCCCCCOC1CCCCO1)C(F)=CCCCCCOC1CCCCO1 (stereo not shown) [c111] | 98 % stimulated control | 57 % stimulated control | 25% | 108% |  |
| O=C(NC1CCC(NC(=O)C(F)=CCCCCCO)C1)C(F)=CCCCCCO (stereo not shown) [c116] | 88 % stimulated control | 91 % stimulated control | 6% | 87% |  |
| CCCCCC=CCC=CCCCCCCCC(=O)NC1CC1NC(=O)CCCCCCCC=CCC=CCCCCC (stereo not shown) [c122] |  |  | 8% | 109% |  |
| CCCCCC=CCC=CCCCCCCCC(=O)NC1CCC(NC(=O)CCCCCCCC=CCC=CCCCCC)C1 (stereo not shown) [c135] |  |  | 0% | 90% |  |
